Earlier results, collected in patent US20040077591A1, “Histone deacetylase inhibitors for the treatment of multiple sclerosis, amyotrophic lateral sclerosis and Alzheimer's Disease” (The Brigham and Women's Hospital, Inc., priority 2002, published 2004).

Experiments:
SMA-like mice = details: cited from earlier work
SMA lymphoid cell lines = details: cited from earlier work

CCCC(=O)[O-].[Na+] [sodium butyrate]
expression of SMN protein in spinal cord motor neurons (SMA-like mice; SMA-like mice): increased expression of SMN protein
symptoms (SMA-like mice; SMA-like mice): improved symptoms
birth rate of severe types of SMA-like mice (SMA-like mice; heterozygous knock-out transgenic SMA-like mice bred): decreased the birth rate
amount of exon 7-containing survival motor neuron (SMN) protein (SMA lymphoid cell lines): effective at increasing
